Reference: US9233977B2, “Leucine-rich repeat kinase enzyme activity” (Merck Sharp & Dohme Corp., priority 2010, dated 2016)

What follows are molecules tested against T1, LRRK2 G2019S mutant kinase (Homo sapiens, UniProt Q5S007, G2019S) (assay: LRRK2 G2019S LanthaScreen TR-FRET kinase assay). Settings: LRRK2 G2019S GST-tagged protein, 75 nM Fluorescein-ERM (LRRKtide), 100 μM ATP, 1 hour at room temperature; read-out: IC50 (potency).
T1 construct: GST; purchased Invitrogen PV4882
Assay type: biochemical
Procedure: The final solvent concentration in the assay was 1% DMSO. […] Generation of raw data and workup of data to derive the IC50 (potency) and maximal inhibition at concentrations tested were performed using Merck's Assay Data Analyzer (ADA) software.
The IC50 (potency) was evaluated for the example compounds presented above.

T1 sequence (Q5S007 whole entry G2019S): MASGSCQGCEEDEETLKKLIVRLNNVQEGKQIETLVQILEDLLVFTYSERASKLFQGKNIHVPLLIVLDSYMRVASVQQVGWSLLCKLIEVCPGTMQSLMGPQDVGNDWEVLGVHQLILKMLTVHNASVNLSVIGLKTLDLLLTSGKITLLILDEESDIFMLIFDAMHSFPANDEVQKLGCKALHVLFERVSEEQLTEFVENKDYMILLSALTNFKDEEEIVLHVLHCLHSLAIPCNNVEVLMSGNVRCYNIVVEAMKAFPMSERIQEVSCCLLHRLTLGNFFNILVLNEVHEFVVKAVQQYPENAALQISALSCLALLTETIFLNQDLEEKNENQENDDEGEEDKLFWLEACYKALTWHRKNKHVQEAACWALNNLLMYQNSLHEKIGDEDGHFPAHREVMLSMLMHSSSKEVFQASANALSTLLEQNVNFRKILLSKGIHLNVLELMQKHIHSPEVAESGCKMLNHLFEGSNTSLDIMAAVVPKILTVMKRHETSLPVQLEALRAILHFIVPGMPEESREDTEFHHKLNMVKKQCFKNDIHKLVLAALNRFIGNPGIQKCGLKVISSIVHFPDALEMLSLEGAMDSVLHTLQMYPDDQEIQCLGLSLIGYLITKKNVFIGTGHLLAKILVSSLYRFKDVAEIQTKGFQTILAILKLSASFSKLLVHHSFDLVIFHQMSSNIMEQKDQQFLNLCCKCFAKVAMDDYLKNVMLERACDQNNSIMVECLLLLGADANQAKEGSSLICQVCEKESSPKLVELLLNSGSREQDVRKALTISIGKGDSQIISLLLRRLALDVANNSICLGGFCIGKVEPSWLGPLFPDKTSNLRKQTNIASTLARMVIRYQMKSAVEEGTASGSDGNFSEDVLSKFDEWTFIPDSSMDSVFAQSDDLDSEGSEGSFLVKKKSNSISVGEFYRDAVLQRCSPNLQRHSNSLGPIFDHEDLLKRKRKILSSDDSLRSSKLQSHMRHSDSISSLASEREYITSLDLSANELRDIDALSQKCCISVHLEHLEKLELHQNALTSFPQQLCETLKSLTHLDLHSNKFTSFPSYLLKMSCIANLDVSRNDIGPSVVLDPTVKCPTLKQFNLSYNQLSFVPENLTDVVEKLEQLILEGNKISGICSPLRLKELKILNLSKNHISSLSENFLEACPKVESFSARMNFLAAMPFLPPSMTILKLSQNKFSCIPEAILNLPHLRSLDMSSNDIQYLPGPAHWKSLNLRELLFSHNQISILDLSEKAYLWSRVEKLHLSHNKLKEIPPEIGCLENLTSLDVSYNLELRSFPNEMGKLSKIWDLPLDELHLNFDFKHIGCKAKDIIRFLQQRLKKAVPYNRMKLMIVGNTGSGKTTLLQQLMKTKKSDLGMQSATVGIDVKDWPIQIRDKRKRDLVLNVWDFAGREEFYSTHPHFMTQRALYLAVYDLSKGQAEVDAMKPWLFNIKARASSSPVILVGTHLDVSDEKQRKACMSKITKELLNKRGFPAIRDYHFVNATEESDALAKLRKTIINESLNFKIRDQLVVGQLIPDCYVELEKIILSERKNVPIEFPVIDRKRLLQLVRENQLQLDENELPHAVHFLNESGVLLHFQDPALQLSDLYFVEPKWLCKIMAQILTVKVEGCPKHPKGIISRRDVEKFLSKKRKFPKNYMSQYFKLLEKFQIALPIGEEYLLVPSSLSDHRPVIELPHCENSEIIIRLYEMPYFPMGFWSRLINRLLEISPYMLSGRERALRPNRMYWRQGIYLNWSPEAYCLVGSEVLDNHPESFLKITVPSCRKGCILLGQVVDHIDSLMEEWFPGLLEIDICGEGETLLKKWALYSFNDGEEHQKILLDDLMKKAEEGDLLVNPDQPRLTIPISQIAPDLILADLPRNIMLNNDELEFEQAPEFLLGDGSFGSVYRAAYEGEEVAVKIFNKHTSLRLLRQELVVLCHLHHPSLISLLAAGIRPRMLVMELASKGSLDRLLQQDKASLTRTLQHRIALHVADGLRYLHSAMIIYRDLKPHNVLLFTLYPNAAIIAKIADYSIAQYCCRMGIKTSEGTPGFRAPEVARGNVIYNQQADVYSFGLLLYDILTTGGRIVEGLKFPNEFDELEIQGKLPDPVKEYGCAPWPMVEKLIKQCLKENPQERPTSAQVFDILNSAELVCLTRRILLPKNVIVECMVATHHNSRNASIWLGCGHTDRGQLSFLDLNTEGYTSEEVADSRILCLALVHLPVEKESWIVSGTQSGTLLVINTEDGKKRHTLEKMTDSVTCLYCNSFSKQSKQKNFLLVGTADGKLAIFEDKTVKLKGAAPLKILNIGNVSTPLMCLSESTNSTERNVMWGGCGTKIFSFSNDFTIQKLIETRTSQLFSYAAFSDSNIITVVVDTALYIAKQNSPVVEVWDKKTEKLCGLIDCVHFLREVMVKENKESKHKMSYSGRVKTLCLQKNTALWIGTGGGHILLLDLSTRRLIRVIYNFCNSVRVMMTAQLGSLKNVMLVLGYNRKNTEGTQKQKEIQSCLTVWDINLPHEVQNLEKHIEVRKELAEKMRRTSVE

Point of comparison: `CSc1sc(-c2cc[nH]n2)c2c1C(=O)NC(C)C2` (stereo not drawn) [Example 3, 6-methyl-3-(methylsulfanyl)-1-(1H-pyrazol-3-yl)-6,7-dihydrothieno[3,4-c]pyridin-4(5)-one], IC50 260 nM. Against it:
- CSc1sc(-c2cc[nH]n2)c2c1C(=O)N(c1ccccc1F)CC2 [Example 85, 5-(2-fluorophenyl)-3-(methylsulfanyl)-1-(1H-pyrazol-3-yl)-6,7-dihydrothieno[3,4-c]pyridin-4(5)-one] — 12-fold higher, 3100 nM
- C[C@@H]1Cc2c(-c3cc[nH]n3)sc(SC3(C(=O)O)CCCC3)c2C(=O)N1 [Example 50, 1-{[(6R)-6-methyl-4-oxo-1-(1H-pyrazol-3-yl)-4,5,6,7-tetrahydrothieno[3,4-c]pyridin-3-yl]sulfanyl}cyclopentanecarboxylic acid] — 13-fold higher, 3400 nM
- CSc1sc(-c2cc[nH]n2)c2c1C(=O)NC(C1CCC1)C2 (stereo not drawn) [Example 14, 6-cyclobutyl-3-(methylsulfanyl)-1-(1H-pyrazol-3-yl)-6,7-dihydrothieno[3,4-c]pyridin-4(5)-one] — within 1.5-fold, 190 nM
- CSc1sc(-c2cc[nH]n2)c2c1C(=O)N[C@H](c1cccc(F)c1)C2 [Example 17, (6S)-3-(methylsulfanyl)-6-(3-fluorophenyl)-1-(1H-pyrazol-3-yl)-6,7-dihydrothieno[3,4-c]pyridin-4(5)-one] — 3.3-fold lower, 78 nM
- CNc1sc(-c2cc[nH]n2)c2c1C(=O)NCC2C (stereo not drawn) [Example 96, 3-(methylamino)-7-methyl-1-(1H-pyrazol-3-yl)-6,7-dihydrothieno[3,4-c]pyridin-4(5H)-one] — within 1.5-fold, 370 nM
- CC(C)CC1Cc2c(-c3cc[nH]n3)sc(SC3CCCC3)c2C(=O)N1 (stereo not drawn) [Example 34, 6-(2-methylpropyl)-3-(cyclopentylsulfanyl)-1-(1H-pyrazol-3-yl)-6,7-dihydrothieno[3,4-c]pyridin-4(5)-one] — 2.4-fold lower, 110 nM
- O=C(O)CSc1sc(-c2cc[nH]n2)c2c1C(=O)NCC2 [Example 46, 1-{[4-oxo-1-(1H-pyrazol-3-yl)-4,5,6,7-tetrahydrothieno[3,4-c]pyridin-3-yl]sulfanyl}acetic acid] — 12-fold higher, 3100 nM
- CC1Cc2c(-c3cc[nH]n3)sc(NC3CCCC3)c2C(=O)N1 (stereo not drawn) [Example 87, 3-(cyclopentylamino)-6-methyl-1-(1H-pyrazol-3-yl)-6,7-dihydrothieno[3,4-c]pyridin-4(5H)-one] — within 1.5-fold, 320 nM
- CSc1sc(-c2cc[nH]n2)c2c1C(=O)N(CCCC#N)CC2 [Example 59, 4-[3-(methylsulfanyl)-4-oxo-1-(1H-pyrazol-3-yl)-6,7-dihydrothieno[3,4-]pyridin-5(4H)-yl]butanenitrile] — 14-fold higher, 3700 nM
- CCC(C)CSc1sc(-c2cc[nH]n2)c2c1C(=O)N[C@@H](C)C2 (stereo partly drawn) [Example 48] — 4.7-fold lower, 55 nM
- CCSc1sc(-c2cc[nH]n2)c2c1C(=O)NCC2 [Example 42, 3-ethylsulfanyl-1-(1H-pyrazol-3-yl)-6,7-dihydrothieno[3,4-c]pyridin-4(5)-one] — within 1.5-fold, 360 nM
- C[C@H]1Cc2c(-c3cc[nH]n3)sc(SCC(=O)O)c2C(=O)N1 [Example 51, (6S)-6-methyl-1-{[4-oxo-1-(1H-pyrazol-3-yl)-4,5,6,7-tetrahydrothieno[3,4-c]pyridin-3-yl]sulfanyl}acetic acid] — 8.5-fold higher, 2200 nM
- CC(C)Sc1sc(-c2cc[nH]n2)c2c1C(=O)NCC2 [Example 41, 3-[2-(1-methyl)ethylsulfanyl]-1-(1H-pyrazol-3-yl)-6,7-dihydrothieno[3,4-c]pyridin-4(5)-one] — 1.8-fold higher, 460 nM
- CCCSc1sc(-c2cc[nH]n2)c2c1C(=O)NCC2C (stereo in doubt) [Example 28, (7S)-7-methyl-3-(propylsulfanyl)-1-(1H-pyrazol-3-yl)-6,7-dihydrothieno[3,4-c]pyridin-4(5)-one] — 6.2-fold lower, 42 nM
- CSc1sc(-c2cc[nH]n2)c2c1C(=O)N(Cc1ccncc1)CC2 [Example 72, 5-[(4-pyridyl)methyl]-3-(methylsulfanyl)-1-(1H-pyrazol-3-yl)-6,7-dihydrothieno[3,4-c]pyridin-4(5)-one] — 30-fold higher, 7900 nM
- CSc1sc(-c2cc[nH]n2)c2c1C(=O)N(CC1CCNC1)CC2 (stereo not drawn) [Example 62, 3-(methylsulfanyl)-1-(1H-pyrazol-3-yl)-5-(pyrrolidin-3-ylmethyl)-6,7-dihydrothieno[3,4-c]pyridin-4(5H)-one] — 17-fold higher, 4300 nM
- CSc1sc(-c2cc[nH]n2)c2c1C(=O)N(CCC=C(F)F)CC2 [Example 69, 5-(4,4-difluorobut-3-en-1-yl)-3-(methylsulfanyl)-1-(1H-pyrazol-3-yl)-6,7-dihydrothieno[3,4-c]pyridin-4(5)-one] — 2.9-fold higher, 760 nM
- O=C1NC(Cc2ccccc2)Cc2c(-c3cc[nH]n3)sc(SC3CCCC3)c21 (stereo not drawn) [Example 33, 6-benzyl-3-(cyclopentylsulfanyl)-1-(1H-pyrazol-3-yl)-6,7-dihydrothieno[3,4-c]pyridin-4(5)-one] — 2-fold higher, 530 nM
- CSc1sc(-c2cc[nH]n2)c2c1C(=O)N(C(C)C)CC2 [Example 54, 3-(Methylsulfanyl)-5-(propan-2-yl)-1-(1H-pyrazol-3-yl)-6,7-dihydrothieno[3,4-c]pyridin-4(5H)-one] — 13-fold higher, 3500 nM
- CSc1sc(-c2cc[nH]n2)c2c1C(=O)N(C(=O)OC(C)(C)C)C1(CCC1)C2 [Example 6, tert-butyl-6-methyl-3′-(methylsulfanyl)-4′-oxo-1′-(1H-pyrazol-3-yl)-7′H-spiro[cyclobutane-1,6′-thieno[3,4-1]pyridine]-5′(4′H)-carboxylate] — 12-fold higher, 3100 nM
- CSc1sc(-c2cc[nH]n2)c2c1C(=O)N(CCc1ccccc1)CC2 [Example 55, 3-(methylsulfanyl)-5-(2-phenethyl)-1-(1H-pyrazol-3-yl)-6,7-dihydrothieno[3,4-c]pyridin-4(5)-one] — 4.6-fold higher, 1200 nM
- C[C@@H]1Cc2c(-c3cc[nH]n3)sc(NC3CCCC3)c2C(=O)N1 [Example 98, (6R)-3-(cyclopentylamino)-6-methyl-1-(1H-pyrazol-3-yl)-6,7-dihydrothieno[3,4-c]pyridin-4(5H)-one] — within 1.5-fold, 330 nM
- CC1CNC(=O)c2c(NC3CCCC3)sc(-c3cc[nH]n3)c21 (stereo not drawn) [Example 86, 3-(cyclopentylamino)-7-methyl-1-(1H-pyrazol-3-yl)-6,7-dihydrothieno[3,4-e]pyridin-4(5H)-one] — 2.2-fold lower, 120 nM
- CSc1sc(-c2cc[nH]n2)c2c1C(=O)N(Cc1cccnc1)CC2 [Example 61, 5-[(3-pyridinyl)methyl]-3-(methylsulfanyl)-1-(1H-pyrazol-3-yl)-6,7-dihydrothieno[3,4-c]pyridin-4(5)-one] — 8.1-fold higher, 2100 nM
- CSc1sc(-c2cc[nH]n2)c2c1C(=O)NC(C(=O)OC(C)(C)C)C2 (stereo not drawn) [Example 20, tert-butyl-3-(methylsulfanyl)-4-oxo-1-(1H-pyrazol-3-yl)-4,5,6,7-tetrahydrothieno[3,4-c]pyridine-carboxylate] — 30-fold higher, 7900 nM
- CCCCNCCSc1sc(-c2cc[nH]n2)c2c1C(=O)NCC2 [Example 37, 3-{[2-(butylamino)ethyl]sulfanyl}-1-(1H-pyrazol-3-yl)-6,7-dihydrothieno[3,4-c]pyridin-4(5)one] — 20-fold higher, 5200 nM
- CSc1sc(-c2cc[nH]n2)c2c1C(=O)NC[C@H]2C [Example 22, (7S)-7-methyl-3-(methylsulfanyl)-1-(1H-pyrazol-3-yl)-6,7-dihydrothieno[3,4-c]pyridin-4(5)-one] — 1.5-fold higher, 400 nM
- CSc1sc(-c2cc[nH]n2)c2c1C(=O)N(Cc1ccnc3ccccc13)CC2 [Example 56, 3-(methylsulfanyl)-1-(1H-pyrazol-3-yl)-5-(quinolin-4-ylmethyl)-6,7-dihydrothieno[3,4-c]pyridin-4(5)-one] — 14-fold higher, 3700 nM
- CNc1sc(-c2cc[nH]n2)c2c1C(=O)N[C@@H](C)C2 [Example 99, (6S)-3-(methylamino)-6-methyl-1-(1H-pyrazol-3-yl)-6,7-dihydrothieno[3,4-c]pyridin-4(5H)-one] — 4.6-fold higher, 1200 nM
- O=C1NCCc2c(-c3cc[nH]n3)sc(SC3CCCCC3)c21 [Example 45, 3-(cyclohexylsulfanyl)-1-(1H-pyrazol-3-yl)-6,7-dihydrothieno[3,4-c]pyridin-4(5)-one] — within 1.5-fold, 380 nM
- CSc1sc(-c2cc[nH]n2)c2c1C(=O)NCC2 [Example 1, 3-(Methylsulfanyl)-1-(1H-pyrazol-3-yl)-6,7-dihydrothieno[3,4-c]pyridin-4(5H)-one] — 1.8-fold higher, 460 nM
- CSc1sc(-c2cc[nH]n2)c2c1C(=O)NC(CC(C)C)C2 (stereo not drawn) [Example 12, 6-(2-methylpropyl)-3-(methylsulfanyl)-1-(1H-pyrazol-3-yl)-6,7-dihydrothieno[3,4-c]pyridin-4(5)-one] — within 1.5-fold, 300 nM
- CSc1sc(-c2cc[nH]n2)c2c1C(=O)NC1(CCCC1)C2 [Example 8, 3′-(methylsulfanyl)-4′-oxo-1′-(1H-pyrazol-3-yl)-7′H-spiro[cyclopentane-1,6′-thieno[3,4-1]pyridine]-4′(5′H)-one] — within 1.5-fold, 220 nM
- CSc1sc(-c2cc[nH]n2)c2c1C(=O)N(Cc1ccccc1)CC2 [Example 77, 5-benzyl-3-(methylsulfanyl)-1-(1H-pyrazol-3-yl)-6,7-dihydrothieno[3,4-c]pyridin-4(5)-one] — 5-fold higher, 1300 nM
- CNc1sc(-c2cc[nH]n2)c2c1C(=O)NC(Cc1ccccc1)C2 (stereo not drawn) [Example 93, 3-(methylamino)-6-benzyl-1-(1H-pyrazol-3-yl)-6,7-dihydrothieno[3,4-c]pyridin-4(5H)-one] — within 1.5-fold, 330 nM
- C[C@H]1Cc2c(-c3cc[nH]n3)sc(NC3CCCC3)c2C(=O)N1 [Example 97, (6S)-3-(cyclopentylamino)-6-methyl-1-(1H-pyrazol-3-yl)-6,7-dihydrothieno[3,4-c]pyridin-4(5H)-one] — within 1.5-fold, 320 nM
- CSc1sc(-c2cc[nH]n2)c2c1C(=O)NC1(CC1)C2 [Example 7, 3′-(methylsulfanyl)-4′-oxo-1′-(1H-pyrazol-3-yl)-7′H-spiro[cyclopropanc-1,6′-thieno[3,4-1]pyridine]-4′(5′H)-one] — within 1.5-fold, 350 nM
- CSc1sc(-c2cc[nH]n2)c2c1C(=O)N(C)CC2 [Example 75, 5-methyl-3-(methylsulfanyl)-1-(1H-pyrazol-3-yl)-6,7-dihydrothieno[3,4-c]pyridin-4(5)-one] — 13-fold higher, 3300 nM
